Test results from patent US8889671B2, “Compounds and methods for treating bacterial infections” (AstraZeneca AB, priority 2013, dated 2014).
In brackets after ≈: the same amount, converted by molar mass. Like-named read-outs stand apart in the source and are kept apart here.

Assays:
Streptococcus pyogenes = assay: Susceptibility testing (MIC) Assay 1, broth microdilution; assay type: cell-based; conditions: Streptococcus pyogenes, Streptococcus pyrgenes, in vivo strain; read-out: Spy MIC
Experimental: (§1) Minimum Inhibitory Concentrations (MICs) were determined by the broth microdilution method in accordance with the Clinical and Laboratory Standards Institute (CLSI) guidelines. In brief, organism suspensions were adjusted to a 0.5 McFarland standard to yield a final inoculum between 3×10^5 and 7×10^5 colony-forming units (CFU)/mL. Bacterial inocula were prepared for most organisms in sterile, cation adjusted Mueller-Hinton Broth (Beckton Dickinson). The streptococci were prepared as above in cation adjusted Mueller-Hinton Broth to which 2.5% lysed horse blood (Hema Resource & Supply Inc.) was added. An inoculum volume of 100 μL was added to wells (using a Tecan EVO robot) containing 2 μL of DMSO containing 2-fold serial dilutions of drug. All inoculated microdilution trays were incubated in ambient air at 35° C. for 18-24 hours. Following incubation, the lowest concentration of the drug that prevented visible growth as read at OD600 nm and confirmed by a visual read using a test reading mirror was recorded as the MIC. Performance of the assay was monitored by the use of laboratory quality-control strains and commercially available control compounds with defined MIC spectrums, in accordance with CLSI guidelines. Table 1 provides the MIC results (μM) of Examples 1-77 tested in Assay 1. Table 2 provides the MIC (μg/mL) results of Examples 78-80 tested in Assay 1.

Staphylococcus aureus = assay: as above; assay type: cell-based; conditions: Staphylococcus aureus
Experimental: as §1

Streptococcus pneumoniae = assay: as above; assay type: cell-based
Experimental: as §1

[1] = target: Escherichia coli DNA gyrase A/B tetramer (Escherichia coli (strain K12), UniProt P0AES4+P0AES6); assay: DNA gyrase supercoiling activity fluorescence polarisation assay; assay type: biochemical; conditions: Eco Gyr FP Mean IC50, E. coli DNA gyrase supercoiling, 0.3 mM ATP
Experimental: In a black, 384-well polystyrene assay plate, 30 microliters/well of 5 nM Escherichia coli DNA gyrase A/B tetramer and 130 micrograms/mL of topologically relaxed plasmid containing the triplex-forming sequence
in an assay buffer consisting of 35 mM Tris-HCl (pH 7.5), 24 mM KCl, 4 mM MgCl2, 2 mM dithiothreitol, 1.8 mM spermidine, 5% (v/v) glycerol, 200 nM bovine serum albumin, 0.8% dimethylsulfoxide, and 0.3 mM ATP were incubated at ambient temperature for (typically 30 minutes) in the absence or presence of 5-10 different concentrations of test compound. The supercoiling reactions were quenched by the addition of 10 microliters/well of 40 nM oligodeoxynucleotide probe in 3× triplex-forming buffer consisting of 150 mM NaCl, and 150 mM sodium acetate at pH 3.5. The oligodeoxynucleotide probe was 5′-BODIPY-FL-labeled
After 60 minutes, the fluorescence anisotropy of the BODIPY-FL was measured in a Tecan Ultra plate reader, using 485 nm excitation and 535 nm emission filters equipped with polarizers. The IC50 was determined by nonlinear regression using two control reactions.

Haemophilus influenzae = assay: Susceptibility testing (MIC) Assay 2, broth microdilution; assay type: cell-based; conditions: ATCC51907, Haemophilus influenzae, ATCC 51907, in vivo strain, read-out: Hin MIC
Experimental: (§2) Minimum Inhibitory Concentrations (MICs) were determined by the broth microdilution method in accordance with the Clinical and Laboratory Standards Institute (CLSI) guidelines. In brief, organism suspensions were adjusted to a 0.5 McFarland standard to yield a final inoculum between 3×10^5 and 7×10^5 colony-forming units (CFU)/mL. Bacterial inocula were generally prepared in sterile, cation adjusted Mueller-Hinton Broth (Becton Dickinson) which included Escherichia coli, Klebsiella pneumoniae, and Pseudomonas aeruginosa. Haemophilus influenzae bacterial inocula were prepared in sterile, cation adjusted Mueller-Hinton Broth (Becton Dickinson) containing 0.5% yeast extract (Becton Dickinson) plus 30 mL of 15 μg/mL Bovine Hematin stock (Sigma), and 3 mL of 15 μg/mL β-nicotinamide adenine dinucleotide (Sigma). Strains of Neisseria were tested for MICs using agar dilution methodology in accordance with CLSI guidelines. For broth microdilution testing, an inoculum volume of 100 μL was added to wells (using a Tecan EVO robot) containing 2 μL of DMSO containing 2-fold serial dilutions of drug. All inoculated microdilution panels were incubated in ambient air at 35° C. for 18-24 hours. Following incubation, the lowest concentration of the drug that prevented visible growth as read at OD600 nm and confirmed by a visual read using a test reading mirror was recorded as the MIC. Performance of the assay was monitored by the use of laboratory quality-control strains and commercially available control compounds with defined MIC spectrums, in accordance with CLSI guidelines. Table 3 provides the MIC results (μM) of Examples 1-77 tested in Assay 2. Table 4 provides the MIC (μg/mL) results of Examples 78-80 tested in Assay 2.

Klebsiella pneumoniae = assay: as above; assay type: cell-based; conditions: clinical isolate, mucoid, read-out: Kpn MIC
Experimental: as §2

Escherichia coli = assay: as above; assay type: cell-based; conditions: K12, read-out: Eco MIC
Experimental: as §2

Pseudomonas aeruginosa = assay: as above; assay type: cell-based; conditions: PAO1, read-out: Pae MIC
Experimental: as §2

[2] = Staphylococcus aureus in vivo strain, MSQS, read-out: Sau(d) MIC
[3] = in vivo strain, MRQR, read-out: Sau(e) MIC
[4] = in vivo strain (footnote b), read-out: Spn(b) MIC
[5] = in vivo strain (footnote c), read-out: Spn(c) MIC

Row | SMILES | MIC (Streptococcus pyogenes) | MIC (Staphylococcus aureus; [2]) | MIC (Staphylococcus aureus; [3]) | MIC (Staphylococcus aureus; serum, read-out: Sau(f) MIC) | MIC (Streptococcus pneumoniae; [4]) | MIC (Streptococcus pneumoniae; [5]) | IC50 [1] | MIC (Haemophilus influenzae) | MIC (Klebsiella pneumoniae) | MIC (Escherichia coli) | MIC (Pseudomonas aeruginosa)
1 | C[C@@H]1CN2c3c(cc4c(N5C(=O)OC[C@@H]5CS(C)(=O)=O)noc4c3F)CC3(C(=O)NC(=O)NC3=O)[C@H]2[C@H](C)O1 [Example 46] | 0.39 µM (≈ 0.221 µg/mL) | 1.6 µM (≈ 0.905 µg/mL) | 6.2 µM (≈ 3.51 µg/mL) | 1.6 µM (≈ 0.905 µg/mL) | 0.78 µM (≈ 0.441 µg/mL) | 1.6 µM (≈ 0.905 µg/mL) | 0.17 µM | 0.78 µM (≈ 0.441 µg/mL) | > 200 µM | 100 µM (≈ 56.6 µg/mL) | > 200 µM
2 | C[C@@H]1CN2c3c(cc4c(N5C(=O)OC[C@H]5CN=[N+]=[N-])noc4c3F)CC3(C(=O)NC(=O)NC3=O)[C@H]2[C@H](C)O1 [Example 47, (2R,4S,4aS)-8-((R)-4-(Azidomethyl)-2-oxooxazolidin-3-yl)-11-fluoro-2,4-dimethyl-2,4,4a,6-tetrahydro-1H,1′H-spiro[isoxazolo[4,5-g][1,4]oxazino[4,3-a]quinoline-5,5′-pyrimidine]-2′,4′,6′(3′H)-trione] | 0.279 µM (≈ 0.147 µg/mL) | < 0.2 µM | 0.78 µM (≈ 0.412 µg/mL) | 0.78 µM (≈ 0.412 µg/mL) | 0.39 µM (≈ 0.206 µg/mL) | 0.55 µM (≈ 0.291 µg/mL) | 0.15 µM | 0.78 µM (≈ 0.412 µg/mL) | 200 µM (≈ 106 µg/mL) | 25 µM (≈ 13.2 µg/mL) | > 200 µM
3 | COC[C@H]1COC(=O)N1c1noc2c(F)c3c(cc12)CC1(C(=O)NC(=O)NC1=O)[C@H]1[C@H](C)O[C@H](C)CN31 (single isomer, unassigned) [Example 17] | 0.55 µM (≈ 0.285 µg/mL) | 0.28 µM (≈ 0.145 µg/mL) | 0.78 µM (≈ 0.404 µg/mL) | 0.39 µM (≈ 0.202 µg/mL) | 0.55 µM (≈ 0.285 µg/mL) | 0.55 µM (≈ 0.285 µg/mL) | 0.14 µM | 0.39 µM (≈ 0.202 µg/mL) | > 200 µM | 50 µM (≈ 25.9 µg/mL) | > 200 µM
4 | C[C@@H]1CN2c3c(cc4c(N5C(=O)OC[C@@H]5CCO)noc4c3F)CC3(C(=O)NC(=O)NC3=O)[C@H]2[C@H](C)O1 [Example 31, (2R,4S,4aS)-11-Fluoro-8-((S)-4-(2-hydroxyethyl)-2-oxooxazolidin-3-yl)-2,4-dimethyl-2,4,4a,6-tetrahydro-1H,1′H-spiro[isoxazolo[4,5-g][1,4]oxazino[4,3-a]quinoline-5,5′-pyrimidine]-2′,4′,6′(3′H)-trione] | 0.39 µM (≈ 0.202 µg/mL) | 3.1 µM (≈ 1.6 µg/mL) | 12 µM (≈ 6.21 µg/mL) | 3.1 µM (≈ 1.6 µg/mL) | 0.78 µM (≈ 0.404 µg/mL) | 0.78 µM (≈ 0.404 µg/mL) | 0.42 µM | 0.39 µM (≈ 0.202 µg/mL) | > 200 µM | 100 µM (≈ 51.7 µg/mL) | > 200 µM
5 | C[C@@H]1CN2c3c(cc4c(N5C(=O)OC[C@H]5CF)noc4c3F)CC3(C(=O)NC(=O)NC3=O)[C@H]2[C@H](C)O1 [Example 16, (2R,4S,4aS)-11-Fluoro-8-[(4S)-4-(fluoromethyl)-2-oxo-1,3-oxazolidin-3-yl]-2,4-dimethyl-1,2,4,4a-tetrahydro-2′H,6H-spiro[1,4-oxazino[4,3-a][1,2]oxazolo[4,5-g]quinoline-5,5′-pyrimidine]-2′,4′,6′(1′H,3′H)-trione] | 0.39 µM (≈ 0.197 µg/mL) | 0.39 µM (≈ 0.197 µg/mL) | 1.6 µM (≈ 0.809 µg/mL) | 1.6 µM (≈ 0.809 µg/mL) | 0.39 µM (≈ 0.197 µg/mL) | 0.39 µM (≈ 0.197 µg/mL) | 0.19 µM | 0.78 µM (≈ 0.394 µg/mL) | 200 µM (≈ 101 µg/mL) | 25 µM (≈ 12.6 µg/mL) | > 200 µM
